We go through three compounds from PMC9369069, “Development of Sesamol Carbamate-L-Phenylalanine Prodrug Targeting L-Type Amino Acid Transporter1 (LAT1) as a Potential Antiproliferative Agent against Melanoma” (International Journal of Molecular Sciences, 2022).

The target of the assay is T1, L-type amino acid transporter 1 (LAT1) (Homo sapiens, UniProt Q01650).
T1 construct: gene SLC7A5
Nature of the assay: cell-based.

Like-named read-outs stand apart in the source and are kept apart here.

T1 sequence (Q01650 whole entry): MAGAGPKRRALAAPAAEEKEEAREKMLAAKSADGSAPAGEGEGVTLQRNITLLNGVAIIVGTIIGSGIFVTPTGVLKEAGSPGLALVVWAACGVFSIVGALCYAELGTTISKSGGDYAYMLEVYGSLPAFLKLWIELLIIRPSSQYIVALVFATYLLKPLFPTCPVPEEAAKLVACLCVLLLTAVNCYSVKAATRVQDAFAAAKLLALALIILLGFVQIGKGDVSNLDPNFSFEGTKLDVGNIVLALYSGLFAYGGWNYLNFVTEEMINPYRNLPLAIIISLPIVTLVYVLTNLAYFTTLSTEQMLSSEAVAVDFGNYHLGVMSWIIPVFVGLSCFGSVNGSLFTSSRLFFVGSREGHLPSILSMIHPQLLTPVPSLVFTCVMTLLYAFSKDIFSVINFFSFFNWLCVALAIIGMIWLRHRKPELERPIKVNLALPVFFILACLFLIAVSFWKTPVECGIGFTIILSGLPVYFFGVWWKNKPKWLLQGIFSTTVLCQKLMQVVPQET
T1 sequence (P08195 103-630 partner): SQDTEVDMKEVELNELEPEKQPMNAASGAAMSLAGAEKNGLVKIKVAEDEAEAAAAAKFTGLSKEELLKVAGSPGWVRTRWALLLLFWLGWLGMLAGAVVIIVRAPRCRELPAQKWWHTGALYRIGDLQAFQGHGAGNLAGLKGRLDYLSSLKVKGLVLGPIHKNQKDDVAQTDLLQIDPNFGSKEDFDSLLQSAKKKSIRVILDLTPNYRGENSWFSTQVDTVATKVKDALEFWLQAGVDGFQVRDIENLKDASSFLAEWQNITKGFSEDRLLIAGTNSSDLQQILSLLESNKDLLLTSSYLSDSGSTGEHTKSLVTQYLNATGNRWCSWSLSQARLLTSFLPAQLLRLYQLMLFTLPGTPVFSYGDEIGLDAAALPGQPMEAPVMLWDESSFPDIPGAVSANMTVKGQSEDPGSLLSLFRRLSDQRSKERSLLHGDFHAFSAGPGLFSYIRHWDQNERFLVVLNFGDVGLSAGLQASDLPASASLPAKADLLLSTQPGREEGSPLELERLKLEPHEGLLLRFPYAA

The compound `N[C@@H](Cc1ccc(NC(=O)Oc2ccc3c(c2)OCO3)cc1)C(=O)O` [4-sesamol carbamate-L-phenylalanine prodrug] had an IC50 of 631 ± 38 µM.

As to `N[C@@H](Cc1ccccc1)C(=O)O` [L-Phenylalanine], the IC50 (read-out: IC50) came out at 96.8 ± 11.5 µM.

The compound `Oc1ccc2c(c1)OCO2` [Sesamol] gave an IC50 of 4760 ± 219 µM.
